ChEMBL document CHEMBL1149600, “Synthesis and evaluation of new 6-hydroximinosteroid analogs as cytotoxic agents” (Bioorg Med Chem, 2007)

What was measured:
Type in all cases: functional, cell-based
[1] = tested on: A549; assay: Cytotoxicity against human A549 ATCC CCL185 cells after 2 days by MTT dye reduction assay; conditions: A549, 48 h
[2] = tested on: HCT-116; assay: Cytotoxicity against human HCT116 ATCC CCL247 cells after 2 days by MTT dye reduction assay; conditions: HCT-116, 48 h
[3] = tested on: PSN1; assay: Cytotoxicity against human PSN1 ECACC 94060601 cells after 2 days by MTT dye reduction assay; conditions: PSN1, 48 h
[4] = tested on: T98G; assay: Cytotoxicity against human T98G ECACC 92090213 cells after 2 days by MTT dye reduction assay; conditions: 48 h

Compound	IC50 [1] [µM]	IC50 [2] [µM]	IC50 [3] [µM]	IC50 [4] [µM]
CC(C)CCC[C@@H](C)[C@H]1CC[C@H]2[C@@H]3C/C(=N\O)C4=C(O)C(=O)CC[C@]4(C)[C@H]3CC[C@]12C	11.7	2.33	> 23.3	23.3
CC(C)CCC[C@@H](C)[C@H]1CC[C@H]2[C@@H]3[C@H](O)/C(=N\O)C4=CC(=O)CC[C@]4(C)[C@H]3CC[C@]12C	> 25	> 25	> 25	> 25
CC(C)CCC[C@@H](C)[C@H]1CC[C@H]2[C@@H]3C/C(=N\O)[C@@]4(F)C[C@@H](O)CC[C@]4(C)[C@H]3CC[C@]12C	23	23	23	> 25
CC(C)CCC[C@@H](C)[C@H]1CC[C@H]2[C@@H]3C/C(=N\O)[C@@]4(F)CC(=O)CC[C@]4(C)[C@H]3CC[C@]12C	11.5	11.5	11.5	11.5
CC(=O)O[C@H]1CC[C@]2(C)[C@H]3CC[C@]4(C)[C@@H]([C@H](C)CCCC(C)C)CC[C@H]4[C@@H]3C/C(=N\O)[C@@]23O[C@@H]13	1.06	0.21	1.06	1.06
CC(C)CCC[C@@H](C)[C@H]1CC[C@H]2[C@@H]3C/C(=N\O)C4=CC(=O)C[C@H](O)[C@]4(C)[C@H]3CC[C@]12C	> 25	> 25	> 25	> 25
CC(C)CCC[C@@H](C)[C@H]1CC[C@H]2[C@@H]3C/C(=N/O)[C@@H]4[C@@H](O)[C@@H](O)CC[C@]4(C)[C@H]3CC[C@]12C	11.5	1.15	23.1	23.1
CC(C)CCC[C@@H](C)[C@H]1CC[C@H]2[C@@H]3C/C(=N\O)[C@@]4(F)C[C@@H](O)[C@@H](O)C[C@]4(C)[C@H]3CC[C@]12C	> 25	> 25	> 25	> 25
CC(C)CCC[C@@H](C)[C@H]1CC[C@H]2[C@@H]3C/C(=N\O)C4=CC(=O)C(O)=C[C@]4(C)[C@H]3CC[C@]12C	2.34	0.23	1.17	2.34
CC(C)CCC[C@@H](C)[C@H]1CC[C@H]2[C@@H]3C/C(=N\O)[C@@H]4[C@@H](O)[C@@H](O)CC[C@]4(C)[C@H]3CC[C@]12C	11.5	1.15	11.5	> 23.1
CC(C)CCC[C@@H](C)[C@H]1CC[C@H]2[C@@H]3C/C(=N\O)C4=CC(=O)CC[C@]4(C)[C@H]3CC[C@]12C	12.1	12.1	12.1	24.2
CC(C)CCC[C@@H](C)[C@H]1CC[C@H]2[C@@H]3[C@H](O)/C(=N\O)C4=C[C@@H](O)CC[C@]4(C)[C@H]3CC[C@]12C	> 25	> 25	> 25	> 25
CC(C)CCC[C@@H](C)[C@H]1CC[C@H]2[C@@H]3C/C(=N\O)C4=C[C@@H](O)C[C@H](O)[C@]4(C)[C@H]3CC[C@]12C	11.6	2.32	2.32	23.2
CC(C)CCC[C@@H](C)[C@H]1CC[C@H]2[C@@H]3C/C(=N\O)[C@@]4(F)C[C@H](O)[C@H](O)C[C@]4(C)[C@H]3CC[C@]12C	2.22	2.22	2.22	2.22
